pIC50: −log10 of the molar value.

The target in test [1] is T1, Dual specificity mitogen-activated protein kinase kinase 7 (Homo sapiens, UniProt O14733).
T1 sequence (O14733 whole entry): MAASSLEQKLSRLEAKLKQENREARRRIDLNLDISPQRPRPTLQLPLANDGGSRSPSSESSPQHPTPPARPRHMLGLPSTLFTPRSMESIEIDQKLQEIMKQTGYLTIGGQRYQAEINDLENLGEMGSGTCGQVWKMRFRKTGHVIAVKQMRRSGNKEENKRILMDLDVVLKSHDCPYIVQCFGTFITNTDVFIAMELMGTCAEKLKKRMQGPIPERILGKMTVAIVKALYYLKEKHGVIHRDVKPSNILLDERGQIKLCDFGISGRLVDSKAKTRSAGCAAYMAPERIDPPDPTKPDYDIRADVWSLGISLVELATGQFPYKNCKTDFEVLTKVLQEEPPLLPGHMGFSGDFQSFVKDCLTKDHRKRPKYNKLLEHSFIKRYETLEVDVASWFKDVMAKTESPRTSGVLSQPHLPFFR
Nature of the test: Inhibition of MAP2K7 (unknown origin) using unphosphorylated GST-tagged JNK1 substrate protein assessed as phosphorylation by ELISA.

Test [2] concerns the target Dual specificity mitogen-activated protein kinase kinase 1 (Homo sapiens, UniProt Q02750). Nature of the test: Inhibition of MAP2K1 (unknown origin) using unphosphorylated GST-tagged ERK2 substrate protein assessed as phosphorylation by ELISA.
Test [3] concerns the target Mitogen-activated protein kinase 1 (Homo sapiens, UniProt P28482). The experiment in a line: Inhibition of ERK2 (unknown origin) using FITC-labeled substrate peptide assessed as phosphorylation.

Sequence of Dual specificity mitogen-activated protein kinase kinase 1 (Q02750 whole entry): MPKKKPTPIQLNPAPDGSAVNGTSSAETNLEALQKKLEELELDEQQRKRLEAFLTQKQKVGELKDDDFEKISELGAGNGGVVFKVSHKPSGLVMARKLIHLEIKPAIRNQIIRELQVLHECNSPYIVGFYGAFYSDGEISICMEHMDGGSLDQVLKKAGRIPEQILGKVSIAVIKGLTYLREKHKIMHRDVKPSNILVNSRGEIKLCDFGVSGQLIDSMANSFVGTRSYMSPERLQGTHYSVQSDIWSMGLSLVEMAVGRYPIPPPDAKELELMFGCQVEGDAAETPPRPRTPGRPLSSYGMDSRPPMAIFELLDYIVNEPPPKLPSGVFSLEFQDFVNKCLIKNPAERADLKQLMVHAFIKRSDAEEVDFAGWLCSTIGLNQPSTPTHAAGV
Sequence of Mitogen-activated protein kinase 1 (P28482 whole entry): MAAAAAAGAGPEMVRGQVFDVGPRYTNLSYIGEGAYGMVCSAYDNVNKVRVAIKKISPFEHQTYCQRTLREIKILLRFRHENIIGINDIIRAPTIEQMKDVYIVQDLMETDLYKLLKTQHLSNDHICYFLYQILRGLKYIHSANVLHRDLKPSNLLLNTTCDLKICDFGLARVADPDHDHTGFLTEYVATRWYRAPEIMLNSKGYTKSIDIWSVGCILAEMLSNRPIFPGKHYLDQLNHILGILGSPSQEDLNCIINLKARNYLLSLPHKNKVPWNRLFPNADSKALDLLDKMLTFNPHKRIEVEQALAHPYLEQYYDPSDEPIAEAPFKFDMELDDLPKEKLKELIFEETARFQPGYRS

With `COc1cc(O)c2c(c1)/C=C/C[C@H](O)[C@H](O)C(=O)/C=C\C[C@H](C)OC2=O`, the pIC50 in test [1] was 5.89; in test [2], 7.10; in test [3], 5.17.

For the origin of these results see ChEMBL document CHEMBL3351803, “5Z-7-Oxozeaenol covalently binds to MAP2K7 at Cys218 in an unprecedented manner” (Bioorg Med Chem Lett, 2015).
